Reference: patent US8133917B2, “Pterostilbene as an agonist for the peroxisome proliferator-activated receptor alpha isoform” (The United States of America as represented by the …, priority 2004, dated 2012)

Key:
PPARα = target: T1, PPARα (Rattus norvegicus, UniProt P37230); assay: Activation of PPARα in H4IIEC3 cells transfected with PPRE-AB-luciferase reporter gene; type: cell-based
T1 construct: endogenous in cells; host or cells: H4IIEC3 rat hepatoma cells
T1 sequence (P37230 1-468): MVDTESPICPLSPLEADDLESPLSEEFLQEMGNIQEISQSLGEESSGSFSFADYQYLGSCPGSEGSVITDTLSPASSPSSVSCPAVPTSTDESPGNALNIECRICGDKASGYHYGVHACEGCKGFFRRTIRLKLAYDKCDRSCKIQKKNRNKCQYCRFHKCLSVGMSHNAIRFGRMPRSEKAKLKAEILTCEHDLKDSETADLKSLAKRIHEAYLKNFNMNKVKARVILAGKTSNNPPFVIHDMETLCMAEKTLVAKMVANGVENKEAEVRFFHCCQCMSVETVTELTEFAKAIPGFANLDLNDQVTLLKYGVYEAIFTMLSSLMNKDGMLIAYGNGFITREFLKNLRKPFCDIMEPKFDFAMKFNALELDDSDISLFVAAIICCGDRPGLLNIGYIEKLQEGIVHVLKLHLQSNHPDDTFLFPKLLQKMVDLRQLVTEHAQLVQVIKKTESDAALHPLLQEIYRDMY

[1] = Hamster feeding study: plasma lipoprotein cholesterol, glucose, weights; type: in vivo, golden Syrian hamsters; details: hamsters; for plasma LDL cholesterol lower compared to control group / total plasma cholesterol lower compared to control group: 25 mg/kg diet
Method: Male golden Syrian hamsters (Charles River, Wilmington, Mass.), initial weight ranging from 34-41 g, were fed a powdered stock diet (Rodent Lab Chow 5001, Purina Mills, St. Louis, Mo.) for 7 days. The animals were placed in individual wire-bottom cages in a room kept at 20-22° C., 60% rh and 12 h light and dark cycle. Following the initial 7 day period, 8-10 animals were randomly assigned from a weight sorted list to each of five test diets (α-cellulose control and test substance). Food intake was measured twice each week and body weights were monitored once a week. After 21 days on the treatment diets, the animals were killed, blood was collected and analyzed for total cholesterol by the cholesterol oxidase method and lipoprotein cholesterol, by size exclusion chromatography, as previously described (German et al. 1996. Nutrition Res. 16: 1239-1249). All animal procedures were approved by the Animal Care and Use Committee, Western Regional Research Center, USDA, Albany, Calif. and conformed to the principles in “Guide for the Care and Use of Laboratory Animals” (Committee on Care and Use of Laboratory Animals 1985). Plasma blood glucose was determined using a blood glucose meter (Fast Glucose Meter-Precision Xtra, MediSense, Bedford, Mass., USA). Diets were prepared by dissolving powdered cholesterol into warmed butterfat, followed by the addition of corn and fish oil. The small amounts of test ingredients were dissolved in about 50 ml of ethanol and added to the stirring dry ingredients. The liquid fat was also added to the dry ingredients while stirring. Differences between treatments were tested by two-tailed t-test assuming equal variance, and were considered significant at p<0.05.

H4IIEC3 cells = assay: Toxicity to H4IIEC3 cells during the reporter assay; type: cell-based, rat; details: 100 and 300 μM
[2] = Hamster feeding study: plasma lipoprotein cholesterol, glucose, weights; type: in vivo, golden Syrian hamsters; details: hamsters; plant materials at about 10% of total diet; data not shown

Row | SMILES | PPARα activation (luciferase activity) (PPARα; 100 μM, H4IIEC3 cells) [relative luciferase units] | maximal luciferase response compared to control (PPARα; 100 μM, H4IIEC3 cells, 30 hr, n=4) | agonist / activator of PPARα (PPARα; H4IIEC3 cells) | plasma LDL cholesterol lower compared to control group [1] [%] | total plasma cholesterol lower compared to control group [1] [%] | Final Weights: Body wt (AVG) ([1]; 25 ppm in diet, 21 days) [g] | Final Weights: Liver wt (AVG) ([1]; 25 ppm in diet, 21 days) [g] | LDL/HDL (AVG) ([1]; 25 ppm in diet, 21 days) | Liver/Body (AVG) ([1]; 25 ppm in diet, 21 days) | Plasma Lipoprotein Cholesterol HDL (AVG) ([1]; 25 ppm in diet, 21 days) [mg/dL] | Plasma Lipoprotein Cholesterol LDL (AVG) ([1]; 25 ppm in diet, 21 days) [mg/dL] | Plasma Lipoprotein Cholesterol Total (AVG) ([1]; 25 ppm in diet, 21 days) [mg/dL] | Plasma Lipoprotein Cholesterol VLDL (AVG) ([1]; 25 ppm in diet, 21 days) [mg/dL] | Plasma glucose (AVG) ([1]; 25 ppm in diet, 21 days) | induction of luciferase activity (PPARα; all the concentrations tested (1, 10, 100, 300 μM)) | toxicity to H4IIEC3 cells (H4IIEC3 cells) | lowering of plasma cholesterol levels versus freeze-dried tomato and eggplant materials [2]
1 | CC(C)(Oc1ccc(C2CC2(Cl)Cl)cc1)C(=O)O (stereo not drawn) [ciprofibrate] | 19460±1466 | about 5 fold | acts as an agonist of PPARα | – | – | – | – | – | – | – | – | – | – | – | – | – | –
2 | COc1cc(/C=C/c2ccc(O)cc2)cc(OC)c1 [pterostilbene] | – | – | – | 29 | 18 | 110.5 | 7.9 | 1.8 | 7.1 | 137.0 | 228.1 | 447.8 | 82.7 | 185.1 | – | – | –
3 | COc1ccc(C=Cc2cc(OC)cc(OC)c2)cc1 [resveratrol trimethylether] | – | – | – | – | – | – | – | – | – | – | – | – | – | – | only slightly | – | –
4 | Oc1ccc(C=Cc2cc(O)cc(O)c2)cc1 [resveratrol] | – | – | – | 20 | 14 | 109.5 | 7.6 | 2.2 | – | 127.1 | 257.4 | 468.2 | 83.6 | 191 | – | toxic | more effective than the plant materials
